Earlier results in patent publication US20100239707A1 (priority 2007, published 2010).
“Also recorded” adds a separate entry of the source.

Columns and labels:
[1] = not given; remark: listed apart in the source
[2] = unprimed

| Compound | effect on muscle fibers / myotubes (myotubes) | also measured |
| --- | --- | --- |
| CC(=O)O[C@H]1C(=O)[C@@]2(C)[C@H]([C@H](OC(=O)c3ccccc3)[C@]3(O)C[C@H](OC(=O)[C@H](O)[C@@H](NC(=O)c4ccccc4)c4ccccc4)C(C)=C1C3(C)C)[C@]1(OC(C)=O)CO[C@@H]1C[C@@H]2O [taxol] | causes the disassembly of myotubes | intravenous LD50: 33 mg/kg |
| OO [hydrogen peroxide] |  | concentration inducing apoptosis (cell culture cells): micromolar concentrations |
| CC[C@]1(O)C[C@@H]2CN(CCc3c([nH]c4ccccc34)[C@@](C(=O)OC)(c3cc4c(cc3OC)N(C)[C@H]3[C@@](O)(C(=O)OC)[C@H](OC(C)=O)[C@]5(CC)C=CCN6CC[C@]43[C@@H]65)C2)C1 [vinblastine] | causes the disassembly of myotubes | oral LD50 [1]: 300 to 400 mg/kg |
| [Ca+2].[Cl-].[Cl-] [anhydrous CaCl2, CaCl2] |  | intravenous LD50: about 40 mg/kg |
| COC(=O)Nc1nc2ccc(C(=O)c3cccs3)cc2[nH]1 [nocodazole] | causes the disassembly of myotubes; also recorded: result in cell fission with cells that exhibit DNA sysnthesis and cell growth |  |
| COc1cc2c(c(OC)c1OC)-c1ccc(OC)c(=O)cc1[C@@H](NC(C)=O)CC2 [colchicine] | causes the disassembly of myotubes |  |
| COc1ccc(CNc2nc(NCc3ccc(OC)cc3)c3ncn(C(C)C)c3n2)cc1 [myoseverin] | result in cell fission with cells that exhibit DNA sysnthesis and cell growth |  |
| lipopolysaccharide [LPS] |  | LD50 [2]: ~1 mg/kg |
